# ChEMBL document CHEMBL5729210, “Benzodiazepine derivatives as RSV inhibitors” (2022)
# Assay: RSV-A Assay: The description is Japanese.
row,Structure (SMILES),EC50
1,O=C1Nc2ccccc2C(c2ccccc2)=NC1Nc1nnc(-c2ccncn2)o1 (stereo not given),> 800 nM
2,N#Cc1cc(-c2nnc(NC3N=C(c4ccccc4)c4ccccc4NC3=O)o2)ccc1F (stereo not given),in the range around 600 nM
3,Cn1cc(-c2nnc(NC3N=C(c4ccccc4)c4ccccc4NC3=O)o2)cn1 (stereo not given),in the range around 600 nM
4,Cc1ccc(-c2nnc(NC3N=C(c4ccccc4)c4ccccc4NC3=O)o2)o1 (stereo not given),> 800 nM
5,O=C1Nc2ccccc2C(c2ccccc2)=NC1Nc1nnc(-c2ccc(F)cc2F)o1 (stereo not given),> 800 nM
6,CS(=O)(=O)c1ccc(-c2nnc(NC3N=C(c4ccccc4)c4ccccc4NC3=O)o2)cc1 (stereo not given),> 800 nM
7,O=C1Nc2ccccc2C(c2ccccc2)=NC1Nc1nc(Cl)ns1 (stereo not given),> 800 nM
8,O=C1Nc2ccccc2C(c2ccccc2)=NC1Nc1nnc(-c2cccc(F)c2)o1 (stereo not given),> 800 nM
9,O=C1Nc2ccccc2C(c2ccccc2)=N[C@@H]1Nc1nnc(-c2ccco2)o1,in the range around 600 nM
10,CN1CCc2nc(-c3nnc(NC4N=C(c5ccccc5)c5ccccc5NC4=O)o3)sc2C1 (stereo not given),> 800 nM
11,O=C1Nc2ccccc2C(c2ccccc2)=NC1Nc1nnc(Cc2ccccc2)o1 (stereo not given),> 800 nM
12,O=C1Nc2ccccc2C(c2ccccc2)=NC1Nc1nnc(-c2ccccc2F)o1 (stereo not given),> 800 nM
13,COc1ccc(CN2C(=O)C(Nc3ccc(-c4ccccc4)nn3)N=C(c3ccccc3)c3ccccc32)cc1 (stereo not given),in the range around 600 nM
14,O=C1Nc2ccccc2C(c2ccccc2)=NC1Nc1nnc(-c2cccc3ccccc23)o1 (stereo not given),> 800 nM
15,CC(=O)N1CCC(c2nnc(NC3N=C(c4ccccc4)c4ccccc4NC3=O)o2)CC1 (stereo not given),> 800 nM
16,O=c1c(Br)cccn1Cc1ccccc1,> 800 nM
17,Cc1ccc(-c2nnc(NC3N=C(c4ccccc4)c4ccccc4NC3=O)o2)s1 (stereo not given),> 800 nM
18,O=C1Nc2ccccc2C(c2ccccc2)=NC1Nc1nnc(-c2ncccn2)o1 (stereo not given),> 800 nM
19,COc1cccc(-c2nnc(NC3N=C(c4ccccc4)c4ccccc4NC3=O)o2)c1 (stereo not given),> 800 nM
20,O=C1Nc2ccccc2C(c2ccccc2)=NC1Nc1nnc(-c2ccc(F)cc2)s1 (stereo not given),> 800 nM
21,O=C1Nc2ccccc2C(c2ccccc2)=NC1Nc1nnc(-c2cnccn2)o1 (stereo not given),> 800 nM
22,O=C1Nc2ccccc2C(c2ccccc2)=NC1Nc1nnc(-c2cscn2)o1 (stereo not given),in the range around 600 nM
23,O=C1Nc2ccccc2C(c2ccccc2)=NC1Nc1ncc(-c2ccccc2)o1 (stereo not given),> 800 nM
24,COc1cc(-c2nnc(NC3N=C(c4ccccc4)c4ccccc4NC3=O)o2)ccn1 (stereo not given),> 800 nM
25,O=C1Nc2ccccc2C(c2ccccc2)=N[C@H]1Nc1nnc(-c2ccc(F)cc2)o1,> 800 nM

row,Structure (SMILES),EC50
1,N#Cc1ccc(-c2nnc(NC3N=C(c4ccccc4)c4ccccc4NC3=O)o2)nc1 (stereo not given),in the range around 600 nM
2,Cc1nnc(NC2N=C(c3ccccc3)c3ccccc3NC2=O)o1 (stereo not given),> 800 nM
3,O=C1Nc2ccccc2C(c2ccccc2)=NC1Nc1nnc(-c2cncs2)o1 (stereo not given),> 800 nM
4,O=C1Nc2ccccc2C(c2ccccc2)=NC1Nc1nnc(-c2cncnc2)o1 (stereo not given),> 800 nM
5,Cc1cccc(-c2nnc(NC3N=C(c4ccccc4)c4ccccc4NC3=O)o2)n1 (stereo not given),> 800 nM
6,O=C1Nc2ccccc2C(c2ccccc2)=NC1Nc1nnc(-c2ccccc2)o1 (stereo not given),> 800 nM
7,O=C1Nc2ccccc2C(c2ccccc2)=NC1Nc1nc(-c2ccccc2)cs1 (stereo not given),> 800 nM
8,O=C1Nc2ccccc2C(c2ccccc2)=NC1Nc1nnc(-c2ccccc2)[nH]1 (stereo not given),> 800 nM
9,CN(C)Cc1ccc(-c2nnc(NC3N=C(c4ccccc4)c4ccccc4NC3=O)o2)o1 (stereo not given),> 800 nM
10,O=C1Nc2ccccc2C(c2ccccc2)=NC1Nc1cc(Oc2ccccc2)ncn1 (stereo not given),> 800 nM
11,O=C1Nc2ccccc2C(c2ccccc2)=NC1Nc1ccnc(-c2ccccc2)n1 (stereo not given),> 800 nM
12,O=C1Nc2ccccc2C(c2ccccc2)=NC1Nc1nc2ccccc2o1 (stereo not given),> 800 nM
13,Cn1ccnc1-c1nnc(NC2N=C(c3ccccc3)c3ccccc3NC2=O)o1 (stereo not given),> 800 nM
14,O=C1Nc2ccccc2C(c2ccccc2)=NC1Nc1nnc(-c2ccc3ccccc3c2)o1 (stereo not given),in the range around 600 nM
15,COc1cc(-c2nnc(NC3N=C(c4ccccc4)c4ccccc4NC3=O)o2)ccc1F (stereo not given),< 400 nM
16,O=C1Nc2ccccc2C(c2ccccc2)=NC1Nc1nnc(-c2ccc(Cl)cc2)o1 (stereo not given),< 400 nM
17,O=C1Nc2ccccc2C(c2ccccc2)=NC1Nc1nnc(-c2ccc3nc[nH]c3c2)o1 (stereo not given),> 800 nM and in the range around 600 nM
18,CCOC(=O)c1nnc(NC2N=C(c3ccccc3)c3ccccc3NC2=O)o1 (stereo not given),> 800 nM
19,O=C1Nc2ccccc2C(c2ccccc2)=NC1Nc1nnc(-c2cccnn2)o1 (stereo not given),> 800 nM
20,O=C1Nc2ccccc2C(c2ccccc2)=NC1Nc1ncc2ccccc2n1 (stereo not given),> 800 nM
21,N#Cc1ccc(-c2nnc(NC3N=C(c4ccccc4)c4ccccc4NC3=O)s2)cc1 (stereo not given),in the range around 600 nM
22,O=C1Nc2ccccc2C(c2ccccc2)=NC1Nc1nnc(-c2ccc(Cl)o2)o1 (stereo not given),> 800 nM
23,O=C1Nc2ccccc2C(c2ccccc2)=NC1Nc1nnc(-c2cccc(C(F)(F)F)c2)o1 (stereo not given),> 800 nM
24,O=C1Nc2ccccc2C(c2ccccc2)=NC1Nc1nc2ccc(Cl)cc2o1 (stereo not given),> 800 nM
25,N#Cc1cccc(-c2nnc(NC3N=C(c4ccccc4)c4ccccc4NC3=O)o2)c1 (stereo not given),> 800 nM

row,Structure (SMILES),EC50
1,O=C1Nc2ccccc2C(c2ccccc2)=NC1Nc1nnc(-c2ccc(=O)[nH]c2)o1 (stereo not given),> 800 nM
2,NS(=O)(=O)c1ccc(-c2nnc(NC3N=C(c4ccccc4)c4ccccc4NC3=O)o2)cc1 (stereo not given),in the range around 600 nM
3,O=C1Nc2ccccc2C(c2ccccc2)=NC1Nc1nnc(-c2cnco2)o1 (stereo not given),> 800 nM
4,COc1ccc(-c2nnc(NC3N=C(c4ccccc4)c4ccccc4NC3=O)o2)cn1 (stereo not given),< 400 nM
5,O=C1Nc2ccccc2C(c2ccccc2)=NC1Nc1nnc(-c2ccc(F)cn2)o1 (stereo not given),> 800 nM
6,O=C1Nc2ccccc2C(c2ccccc2)=N[C@@H]1Nc1nnc(-c2ccc(F)cc2)o1,in the range around 600 nM
7,O=C1Nc2ccccc2C(c2ccccc2)=NC1Nc1nnc(-c2cccnc2)o1 (stereo not given),> 800 nM
8,COCc1ccc(-c2nnc(NC3N=C(c4ccccc4)c4ccccc4NC3=O)o2)o1 (stereo not given),> 800 nM
9,Cc1cc(-c2nnc(NC3N=C(c4ccccc4)c4ccccc4NC3=O)o2)ccc1C#N (stereo not given),in the range around 600 nM
10,O=C1Nc2ccccc2C(c2ccccc2)=NC1Nc1nnc(-c2ccc(C(F)(F)F)cn2)o1 (stereo not given),> 800 nM
11,O=C1Nc2ccccc2C(c2ccccc2)=NC1Nc1nnc(-c2ncco2)o1 (stereo not given),> 800 nM
12,O=C1Nc2ccccc2C(c2ccccc2)=NC1Nc1nnc(-c2cc[nH]c(=O)c2)o1 (stereo not given),> 800 nM
13,CN1CCC(c2nnc(NC3N=C(c4ccccc4)c4ccccc4NC3=O)o2)CC1 (stereo not given),> 800 nM
14,COc1cccc(-c2nnc(NC3N=C(c4ccccc4)c4ccccc4NC3=O)o2)n1 (stereo not given),< 400 nM
15,O=C1Nc2ccccc2C(c2ccccc2)=NC1Nc1cc(-c2ccccc2)ncn1 (stereo not given),> 800 nM
16,COc1ccccc1-c1nnc(NC2N=C(c3ccccc3)c3ccccc3NC2=O)o1 (stereo not given),> 800 nM
17,O=C1Nc2ccccc2C(c2ccccc2)=NC1Nc1nnc(C2CCOCC2)o1 (stereo not given),> 800 nM
18,O=C1Nc2ccccc2C(c2ccccc2)=NC1Nc1nnc(-c2ccccn2)o1 (stereo not given),in the range around 600 nM
19,N#Cc1ccc(-c2nnc(NC3N=C(c4ccccc4)c4ccccc4NC3=O)o2)cc1 (stereo not given),in the range around 600 nM
20,O=C1Nc2ccccc2C(c2ccccc2)=NC1Nc1nnc(-c2cc3cccnc3s2)o1 (stereo not given),> 800 nM
21,O=C1Nc2ccccc2C(c2ccccc2)=NC1Nc1nnco1 (stereo not given),> 800 nM
22,O=C1Nc2ccccc2C(c2ccccc2)=NC1Nc1cc(N2CCOCC2)ncn1 (stereo not given),> 800 nM
23,N#Cc1ccc(-c2nnc(NC3N=C(c4ccccc4)c4ccccc4NC3=O)o2)cc1F (stereo not given),> 800 nM
24,N#Cc1cc(-c2nnc(NC3N=C(c4ccccc4)c4ccccc4NC3=O)o2)ccn1 (stereo not given),> 800 nM
25,O=C1Nc2ccccc2C(c2ccccc2)=N[C@H]1Nc1nnc(-c2ccco2)o1,> 800 nM

row,Structure (SMILES),EC50
1,Cn1nccc1-c1nnc(NC2N=C(c3ccccc3)c3ccccc3NC2=O)o1 (stereo not given),> 800 nM
2,O=C1Nc2ccccc2C(c2ccccc2)=NC1Nc1nnc(C2CCNCC2)o1 (stereo not given),> 800 nM
3,O=C1Nc2ccccc2C(c2ccccc2)=NC1Nc1ncc(-c2ccccc2)s1 (stereo not given),> 800 nM
4,COCc1cccc(-c2nnc(NC3N=C(c4ccccc4)c4ccccc4NC3=O)o2)n1 (stereo not given),> 800 nM
5,O=C1Nc2ccccc2C(c2ccccc2)=NC1Nc1nnc([C@@H]2COCCN2)o1 (stereo not given in full),> 800 nM
6,Cn1cnc(-c2nnc(NC3N=C(c4ccccc4)c4ccccc4NC3=O)o2)c1 (stereo not given),> 800 nM
7,O=C1Nc2ccccc2C(c2ccccc2)=NC1Nc1nnc(-c2ccc(OC(F)(F)F)cc2)o1 (stereo not given),> 800 nM
8,COc1ccc(-c2nnc(NC3N=C(c4ccccc4)c4ccccc4NC3=O)o2)cc1 (stereo not given),> 800 nM
9,O=C1Nc2ccccc2C(c2ccccc2)=NC1Nc1nc(-c2ccccc2)ns1 (stereo not given),> 800 nM
10,COc1ccc(CN2C(=O)C(NC(=S)NC(=O)c3ccccc3)N=C(c3ccccc3)c3ccccc32)cc1 (stereo not given),> 800 nM
11,O=C1Nc2ccccc2C(c2ccccc2)=NC1Nc1nnc(-c2ccc(C(F)(F)F)cc2)o1 (stereo not given),> 800 nM
12,CC(C)Oc1cccc(-c2nnc(NC3N=C(c4ccccc4)c4ccccc4NC3=O)o2)c1 (stereo not given),in the range around 600 nM
13,O=C1Nc2ccccc2C(c2ccccc2)=NC1Nc1nnc([C@H]2COCCN2)o1 (stereo not given in full),> 800 nM
14,O=C1Nc2ccccc2C(c2ccccc2)=NC1Nc1nnc(-c2ccc(F)nc2)o1 (stereo not given),in the range around 600 nM
15,O=C1Nc2ccccc2C(c2ccccc2)=NC1Nc1nnc(-c2ccc(-n3cccn3)cc2)o1 (stereo not given),in the range around 600 nM
16,O=C1Nc2ccccc2C(c2ccccc2)=NC1Nc1nnc(-c2ccncc2)s1 (stereo not given),> 800 nM
17,O=C1Nc2ccccc2C(c2ccccc2)=NC1Nc1nnc(-c2ccnc(F)c2)o1 (stereo not given),< 400 nM
18,O=C1Nc2ccccc2C(c2ccccc2)=NC1Nc1nc(-c2ccccc2)no1 (stereo not given),> 800 nM
19,O=C1Nc2ccccc2C(c2ccccc2)=NC1Nc1nnc(-c2ccccc2)s1 (stereo not given),> 800 nM
20,O=C1Nc2ccccc2C(c2ccccc2)=NC1Nc1nnc(-c2ccncc2)o1 (stereo not given),in the range around 600 nM
21,COc1ccnc(-c2nnc(NC3N=C(c4ccccc4)c4ccccc4NC3=O)o2)c1 (stereo not given),> 800 nM
22,O=C1Nc2ccccc2C(c2ccccc2)=NC1Nc1nnc(-c2nccs2)o1 (stereo not given),> 800 nM
23,COc1ccc(-c2nnc(NC3N=C(c4ccccc4)c4ccccc4NC3=O)o2)nc1 (stereo not given),in the range around 600 nM
24,O=C1Nc2ccccc2C(c2ccccc2)=NC1Nc1nnc(C2CC2)o1 (stereo not given),> 800 nM
25,Cc1cc(-c2nnc(NC3N=C(c4ccccc4)c4ccccc4NC3=O)o2)on1 (stereo not given),> 800 nM
